From patent US6538013B2, “Acyclic and cyclic guanidine-and acetamidine derivatives, their preparation and their use as pesticides, esp. as parasiticides” (Novartis Animal Health US, Inc., priority 1998, dated 2003)

Experiments:
Format in all cases: in vivo
[1] = system: cat fleas [Ctenocephalides felis (Bouche)]; test: Control of adult fleas in cats by means of subcutaneous injection; conditions: for action against adult fleas: subcutaneous injection behind left shoulder blade
Description: Test protocol for each test compound: in order to determine the effectiveness of the test compounds against fully grown fleas, four groups each of two cats from 1.5 to 4 years of age are used. Each cat is infested with 100 cat fleas [Ctenocephalides felis (Bouche)]. Two groups are treated with 20 mg of active ingredient per kg body weight. The treatment is effected by subcutaneous injection of a solution of the active ingredient behind the left shoulder blade. While one group is infested with fleas but is treated only with a placebo, that is to say a formulation without active ingredient, and serves as control, another group is treated with nitenpyram as comparison substance. Evaluation is made in each case by combing surviving fleas out of the animal's coat and comparing the number counted with the number of fleas in the control group and in the group treated with nitenpyram. The procedure in detail is as follows: each cat is infested with 100 fleas immediately after treatment on day 0. On day +1, each animal is combed and the number of surviving fleas is determined; the surviving fleas are then replaced on the same cat and after 24 hours the combing and evaluation are repeated. The fleas still surviving after those 24 hours are not returned to the cat. The described procedure is then repeated on days +3, +7, +9, +14, +21 and +28 and in this way the effectiveness and duration of action is determined. The effectiveness is determined using the same formula as in the preceding Example.

[2] = system: cat fleas [Ctenocephalides felis (Bouche)]; test: Control of adult fleas in cats by means of pour-on application; conditions: for action against adult fleas: pour-on on back of neck, 20 mg of active ingredient per kg body weight; for long-term action / long-term activity against adult fleas: evaluated up to day +63
Description: Test protocol for each test compound: in order to determine the effectiveness of the test compounds against fully grown fleas, four groups each of two cats are used. Each cat is infested with 100 cat fleas [Ctenocephalides felis (Bouche)] and treated with 20 mg of active ingredient per kg body weight. The treatment is effected by applying the formulation to a locally limited area on the back of the cat's neck. While one group is infested with fleas but is treated only with a placebo, that is to say a formulation without active ingredient, and serves as control, another group is treated with nitenpyram as comparison substance; the two remaining groups receive the test compounds. Evaluation is made in each case by combing surviving fleas out of the animal's coat and comparing the number counted with the number of fleas in the control group and in the group treated with nitenpyram. The procedure in detail is as follows: each cat is infested with 100 fleas immediately after treatment on day 0. On day +1, each animal is combed and the number of surviving fleas is determined; the surviving fleas are then replaced on the same cat and after 24 hours the combing and evaluation are repeated. The fleas still surviving after those 24 hours are not returned to the cat. The described procedure is then repeated on days +3, +7, +9, +14, +21, +28, +35, +42, +49, +56 and +63 and in this way the effectiveness and duration of action are determined. The effectiveness is determined in accordance with the following formula: [formula]

[3] = system: dog fleas [Ctenocephalides canis]; test: Control of adult fleas in dogs by means of pour-on application
Description: In dogs the test proceeds in an entirely analogous manner. In order to investigate the total action and any side-effects after administration in the form of a pour-on formulation, compound No. 1.008 is selected and tested on 11 dogs. The test protocol and the results are given in Example 7.
Test protocol for each test compound: in order to determine the effectiveness of the test compounds against fully grown fleas, three groups each of three dogs (1 male and 2 female beagles) are used; one group consists of two dogs (2 male beagles) and serves as control group. The entire test group consists of 11 beagles between 1 and 3.5 years of age. Each dog is infested with a total of 100 dog fleas [Ctenocephalides canis], 50 male and 50 female. Group 1 is treated with 2 mg, group 2 with 10 mg and group 3 with 20 mg of active ingredient per kg body weight. The treatment is effected by applying the pour-on formulation to a locally limited area on the back of the dog's neck. The fourth group is the control group. The latter is infested with fleas but is treated only with a placebo, that is to say a formulation without active ingredient, and serves for control purposes. Evaluation is made in each case by combing surviving fleas out of the animal's coat and comparing the number counted with the number of fleas in the control group. The procedure in detail is as follows: after treatment with the test formulation (day 0) each dog is infested on each of the subsequent days +1, +7, +14, +23, +28, +35, +49, +56, +63, +70, +77, +84 and +98 with 100 fleas. On the following day, each animal is combed and the number of surviving fleas is determined. The surviving fleas are then replaced on the same dog and after 24 hours the combing and evaluation are repeated. The fleas still surviving after those further 24 hours (2nd day after infestation with 100 fleas) are not returned to the dog. Then on days +3, +7, +9, +14, +21, +28, +35, +42 etc. the described procedure is repeated and in this way the effectiveness and the duration of action are determined. The effectiveness is determined using the formula given in Example 6.

| SMILES | action against adult fleas ([1]; cats, 20 mg/kg body weight) | action against adult fleas [2] | also measured |
| --- | --- | --- | --- |
| CCN(Cc1ccc(Cl)nc1)C(=C[N+](=O)[O-])N(C)C(=O)OCOC(C)=O [Compound 1.001] | Very good action | Very good action | – |
| CCCCC(=O)OCOC(=O)N(C)C(=C[N+](=O)[O-])N(CC)Cc1ccc(Cl)nc1 [Compound 1.008] | Very good action | Very good action | action (effectiveness) against fleas ([3]; dogs (beagles), pour-on, groups 2, 10 and 20 mg/kg (group not stated), 79 days after application): 100%; effectiveness against fleas ([3]; dogs (beagles), pour-on, groups 2, 10 and 20 mg/kg (group not stated), day 86): 98.6%; effectiveness against fleas ([3]; dogs (beagles), pour-on, groups 2, 10 and 20 mg/kg (group not stated), day 98): 92.3%; skin irritation or other undesirable side-effects ([3]; dogs of the three test groups, pour-on 2, 10 and 20 mg/kg body weight): no skin irritation or any other undesirable side-effects; action (effectiveness) to which it gradually declines after 7 weeks ([2]; pour-on, 20 mg/kg body weight): 26%; long-term action / long-term activity against adult fleas ([2]; pour-on, 20 mg/kg body weight): especially high level of long-term activity |
| CCCCCCCC(=O)OCOC(=O)N(C)C(=C[N+](=O)[O-])N(CC)Cc1ccc(Cl)nc1 [Compound 1.011] | Very good action | Very good action | action (effectiveness) to which it gradually declines after 7 weeks ([2]; pour-on, 20 mg/kg body weight): 26%; long-term action / long-term activity against adult fleas ([2]; pour-on, 20 mg/kg body weight): especially high level of long-term activity |
| CCCCCCCCCCCC(=O)OCOC(=O)N(C)C(=C[N+](=O)[O-])N(CC)Cc1ccc(Cl)nc1 [Compound 1.012] | Very good action | Very good action | period of full action ([1]; cats, subcutaneous injection, 20 mg/kg body weight): at least 20 days; long-term action / long-term activity against adult fleas ([1]; cats, subcutaneous injection, 20 mg/kg body weight, evaluated up to day +28): especially high level of long-term activity; action (effectiveness) to which it gradually declines after 7 weeks ([2]; pour-on, 20 mg/kg body weight): 26%; long-term action / long-term activity against adult fleas ([2]; pour-on, 20 mg/kg body weight): especially high level of long-term activity |
| CCCCCCCCCCCCCC(=O)OCOC(=O)N(C)C(=C[N+](=O)[O-])N(CC)Cc1ccc(Cl)nc1 [Compound 1.013] | Very good action | Very good action | – |
| CCCCCCCCCCCCCCCC(=O)OCOC(=O)N(C)C(=C[N+](=O)[O-])N(CC)Cc1ccc(Cl)nc1 [Compound 1.014] | Very good action | Very good action | – |
| CCCCCCCCCCCCCCCCCC(=O)OCOC(=O)N(C)C(=C[N+](=O)[O-])N(CC)Cc1ccc(Cl)nc1 [Compound 1.015] | Very good action | Very good action | – |
| CCN(Cc1ccc(Cl)nc1)C(=C[N+](=O)[O-])N(C)C(=O)OCOC(=O)c1ccccc1 [Compound 1.018] | Very good action | Very good action | – |
| CCCCCC(=O)OCOC(=O)N(C)C(=C[N+](=O)[O-])N(CC)Cc1ccc(Cl)nc1 [Compound 1.019] | – | – | long-term action in a further, fully analogous test ([2]; pour-on): long-term action equally as excellent |
| CCN(Cc1ccc(Cl)nc1)C(=C[N+](=O)[O-])N(C)C(=O)OCOC(=O)c1ccc(C(C)(C)C)cc1 [Compound 1.022] | Very good action | Very good action | – |
| CCN(Cc1ccc(Cl)nc1)C(=C[N+](=O)[O-])N(C)C(=O)OCOC(=O)C(C)(C)CC [Compound 1.056] | – | – | long-term action in a further, fully analogous test ([2]; pour-on): long-term action equally as excellent |
| CCCCCCC(=O)OCOC(=O)N(C)C(=C[N+](=O)[O-])N(CC)Cc1ccc(Cl)nc1 [Compound 1.057] | – | – | long-term action in a further, fully analogous test ([2]; pour-on): long-term action equally as excellent |
| CCCCCCCCCCC(=O)OCOC(=O)N(C)C(=C[N+](=O)[O-])N(CC)Cc1ccc(Cl)nc1 [Compound 1.058] | – | – | long-term action in a further, fully analogous test ([2]; pour-on): long-term action equally as excellent |
| CCN(Cc1ccc(Cl)nc1)/C(=C\[N+](=O)[O-])NC [nitenpyram, (E)-N-(6-chloro-3-pyridylmethyl)-N-ethyl-N-methyl-2-nitrovinylidenediamine, reference compound] | – | – | period of full action ([1]; sc, 20 mg/kg): 2 days; period of full action (100% effectiveness) ([2]; pour-on, 20 mg/kg body weight): ≤ 3 weeks |
